# Literature values, collected in article PMC6915728 (Nature Communications, 2019).
# Like-named read-outs stand apart in the source and are kept apart here. Ends that are not written are not given here.
# Test system: bacterial species in which the gene showed activity
# Details: cited from earlier work
# [1] = Salmonella enterica serovar Typhimurium, ref http://www.microbiologyresearch.org/docserver/fulltext/micro/154/2/666.pdf?expires=1487718158&id=id&accname=guest&checksum=D8B884D02A8B2A8619216A48E0826377
# [2] = Salmonella typhimurium, Escherichia coli, ref https://www.ncbi.nlm.nih.gov/pmc/articles/PMC3037666/, https://www.ncbi.nlm.nih.gov/pmc/articles/PMC3837802/pdf/zam7770.pdf
# [3] = Staphylococcus epidermidis, ref http://jb.asm.org/content/178/2/531.full.pdf, https://www.ncbi.nlm.nih.gov/pmc/articles/PMC4239024/
# [4] = Staphylococcus aureus, Staphylococcus xylosus, ref http://www.jbc.org/content/274/13/8405.full.pdf
# [5] = Staphylococcus aureus, ref https://www.ncbi.nlm.nih.gov/pubmed/14707093
# [6] = Staphylococcus aureus, ref http://onlinelibrary.wiley.com/doi/10.1111/j.1365-2958.2007.05986.x/epdf
# [7] = Klebsiella pneumoniae, ref http://iai.asm.org/content/72/12/7107.full.pdf+html
# [8] = Staphylococcus aureus, SalmonellaTyphimurium, ref http://ac.els-cdn.com/S0022202X15369608/1-s2.0-S0022202X15369608-main.pdf?_tid=6fa51c80-693e-11e6-b18c-00000aacb362&acdnat=1471962936_8118358d97a056d7d78b5e8b4ca8d03b, https://www.sciencedirect.com/science/article/pii/S0928824401002917
# [9] = Klebsiella pneumoniae, ref http://www.ncbi.nlm.nih.gov/pmc/articles/PMC2798511/
# [10] = Salmonella typhimurium, Escherichia coli, ref https://www.ncbi.nlm.nih.gov/pmc/articles/PMC3037666/, https://www.ncbi.nlm.nih.gov/pmc/articles/PMC4808223/
# [11] = Salmonella typhimurium, ref https://www.ncbi.nlm.nih.gov/pmc/articles/PMC3037666/
compound,measurement,setting,value
CC[C@H](C)[C@H](NC(=O)CN)C(=O)NCC(=O)N[C@@H](C)C(=O)N[C@H](C(=O)N[C@@H](CC(C)C)C(=O)N[C@@H](CCCCN)C(=O)N[C@H](C(=O)N[C@@H](CC(C)C)C(=O)N[C@H](C(=O)N[C@H](C(=O)NCC(=O)N[C@@H](CC(C)C)C(=O)N1CCC[C@H]1C(=O)N[C@@H](C)C(=O)N[C@@H](CC(C)C)C(=O)N[C@H](C(=O)N[C@@H](CO)C(=O)N[C@@H](Cc1c[nH]c2ccccc12)C(=O)N[C@H](C(=O)N[C@@H](CCCCN)C(=O)N[C@@H](CCCNC(=N)N)C(=O)N[C@@H](CCCCN)C(=O)N[C@@H](CCCNC(=N)N)C(=O)N[C@@H](CCC(N)=O)C(=O)N[C@@H](CCC(N)=O)C(N)=O)[C@@H](C)CC)[C@@H](C)CC)[C@@H](C)O)[C@@H](C)O)C(C)C)C(C)C [melittin],Gene that modulates bacterial susceptibility to the AMP,[1],yejA
same,Gene that modulates bacterial susceptibility to the AMP,[2],cpxA (CpxA/CpxR)
CRAMP,Gene that modulates bacterial susceptibility to the AMP,,pgtE
Colistin,Gene that modulates bacterial susceptibility to the AMP,"Acinetobacter baumannii, ref https://mbio.asm.org/content/4/3/e00021-13",pmrB
same,Gene that modulates bacterial susceptibility to the AMP,"Escherichia coli, Klebsiella pneumoniae, Pseudomonas aeruginosa, Kluyvera ascorbata, ref http://www.ncbi.nlm.nih.gov/pubmed/26603172, http://ac.els-cdn.com/S1473309915005332/1-s2.0-S1473309915005332-main.pdf?_tid=16a7f944-6944-11e6-8a9d-00000aab0f02&acdnat=1471965364_7f481026d1a49114e23adef4a6b4d1a9, https://www.ncbi.nlm.nih.gov/pmc/articles/PMC5119035/",mcr1
same,Gene that modulates bacterial susceptibility to the AMP,"Pseudomonas aeruginosa, ref https://onlinelibrary.wiley.com/doi/epdf/10.1111/j.1365-2958.2008.06152.x","mexA, mexB"
"Epidermin (IASKFICTPGCAKTGSFNSYCC; also: lantibiotic, thioether rings, places not given here; UniProt P08136 31-52, looked up)",Gene that modulates bacterial susceptibility to the AMP,[3],"epiE, epiF, epiG"
GIGKFLHSAKKFGKAFVGEIMNS [Magainin 2],Gene that modulates bacterial susceptibility to the AMP,"Salmonella enterica serovar Typhimurium, ref http://onlinelibrary.wiley.com/doi/10.1111/j.1365-2958.2004.04107.x/full",yqjA
same,Gene that modulates bacterial susceptibility to the AMP,"Salmonella enterica serovar Typhimurium, ref http://www.jbc.org/content/279/37/38618.long, https://onlinelibrary.wiley.com/doi/epdf/10.1111/j.1365-2958.2005.04553.x",slyA
same,Gene that modulates bacterial susceptibility to the AMP,"Salmonella enterica serovar Typhimurium, ref http://www.jbc.org/content/279/37/38618.long",ugtL
Human alfa-defensin1,Gene that modulates bacterial susceptibility to the AMP,[4],dltA (dlt operon)
Human alfa-defensin3,Gene that modulates bacterial susceptibility to the AMP,[4],dltA (dlt operon)
Human alpha-defensin-1,Gene that modulates bacterial susceptibility to the AMP,[5],sak
"Human alpha-defensin-2 (CYCRIPACIAGERRYGTCIYQGRLWAFCC; ends and bridges not checked; cysteine pairing not given here; UniProt P59665 66-94, looked up)",Gene that modulates bacterial susceptibility to the AMP,[5],sak
"Human beta-defensin3 (GIINTLQKYYCRVRGGRCAVLSCLPKEEQIGKCSTRGRKCCRRKK; ends and bridges not checked; cysteine pairing not given here; UniProt P81534 23-67, looked up)",Gene that modulates bacterial susceptibility to the AMP,[6],apsS
Human neutrophil peptide-1,Gene that modulates bacterial susceptibility to the AMP,[7],cps
"LL-37 (LLGDFFRKSKEKIGKEFKRIVQRIKDFLRNLVPRTES; Antibacterial peptide LL-37; UniProt P49913 134-170, looked up)",Gene that modulates bacterial susceptibility to the AMP,"Neisseria meningitidis, Neisseria gonorrhoeae, ref http://www.ncbi.nlm.nih.gov/pmc/articles/PMC1196002/","mtrC, mtrD, mtrE"
same,Gene that modulates bacterial susceptibility to the AMP,"Neisseria meningitidis, ref https://www.ncbi.nlm.nih.gov/pmc/articles/PMC1196002/",lptA
same,Gene that modulates bacterial susceptibility to the AMP,[8],hemB
same,Gene that modulates bacterial susceptibility to the AMP,"Staphylococcus epidermidis, ref http://onlinelibrary.wiley.com/doi/10.1046/j.1462-5822.2004.00367.x/epdf",icaA(ica operon)
Magainin II,Gene that modulates bacterial susceptibility to the AMP,[4],dltA (dlt operon)
Nisin,Gene that modulates bacterial susceptibility to the AMP,"Bacillus subtilis, gene psdA (yvcR), […]",psdA (yvcR)
same,Gene that modulates bacterial susceptibility to the AMP,"Bacillus subtilis, gene psdB (yvcS), […]",psdB (yvcS)
same,Gene that modulates bacterial susceptibility to the AMP,"Lactococcus lactis, genes nisE, nisF, nisG, […]","nisE, nisF, nisG"
same,Gene that modulates bacterial susceptibility to the AMP,"Lactococcus lactis, genes ysaB, ysaC, […]","ysaB, ysaC"
same,Gene that modulates bacterial susceptibility to the AMP,"Listeria monocytogenes, […]",anrA (lmo2114)
same,Gene that modulates bacterial susceptibility to the AMP,"Staphylococcus aureus, […]","braA,braB"
bacitracin,Gene that modulates bacterial susceptibility to the AMP,"Listeria monocytogenes, ref https://www.ncbi.nlm.nih.gov/pmc/articles/PMC2944581/",anrA (lmo2114)
same,Gene that modulates bacterial susceptibility to the AMP,"Staphylococcus aureus, ref https://www.ncbi.nlm.nih.gov/pmc/articles/PMC3718698/","braA,braB"
"beta-defensin-1 (DHYNCVSSGGQCLYSACPIFTKIQGTCYRGKAKCCK; ends and bridges not checked; cysteine pairing not given here; UniProt P60022 33-68, looked up)",Gene that modulates bacterial susceptibility to the AMP,,pla
colistin,Gene that modulates bacterial susceptibility to the AMP,"Acinetobacter baumannii, ref http://aac.asm.org/content/54/12/4971.full.pdf+html",lpxA
same,Gene that modulates bacterial susceptibility to the AMP,[8],hemB
"dermcidin (SSLLEKGLDGAKKAVGGLGKLGKDAVEDLESVGKGAVHDVKDVLDSV; DCD-1; UniProt P81605 63-109, looked up)",Gene that modulates bacterial susceptibility to the AMP,[6],apsS
"gallidermin (IASKFLCTPGCAKTGSFNSYCC; also: lantibiotic, thioether rings, places not given here; UniProt P21838 31-52, looked up)",Gene that modulates bacterial susceptibility to the AMP,[4],dltA (dlt operon)
same,Gene that modulates bacterial susceptibility to the AMP,[3],"epiE, epiF, epiG"
"human beta-defensin 1 (DHYNCVSSGGQCLYSACPIFTKIQGTCYRGKAKCCK; ends and bridges not checked; cysteine pairing not given here; UniProt P60022 33-68, looked up)",Gene that modulates bacterial susceptibility to the AMP,[9],acrB
human beta-defensin 2,Gene that modulates bacterial susceptibility to the AMP,[9],acrB
same,Gene that modulates bacterial susceptibility to the AMP,[8],hemB
"human beta-defensin 3 (GIINTLQKYYCRVRGGRCAVLSCLPKEEQIGKCSTRGRKCCRRKK; ends and bridges not checked; cysteine pairing not given here; UniProt P81534 23-67, looked up)",Gene that modulates bacterial susceptibility to the AMP,[8],hemB
"human beta-defensin-1 (DHYNCVSSGGQCLYSACPIFTKIQGTCYRGKAKCCK; ends and bridges not checked; cysteine pairing not given here; UniProt P60022 33-68, looked up)",Gene that modulates bacterial susceptibility to the AMP,"Burkholderia cenocepacia, ref http://www.microbiologyresearch.org/docserver/fulltext/micro/155/9/2818.pdf?expires=1468919235&id=id&accname=guest&checksum=2CEA64BA8195145BE72C98BB20076628",zmpB
same,Gene that modulates bacterial susceptibility to the AMP,[7],cps
same,Gene that modulates bacterial susceptibility to the AMP,"Proteus mirabilis, ref http://www.ncbi.nlm.nih.gov/pmc/articles/PMC517467/pdf/0713-04.pdf",zapA
human beta-defensin-2,Gene that modulates bacterial susceptibility to the AMP,[1],yejA
"human defensin (human beta-defensin)-1 (DHYNCVSSGGQCLYSACPIFTKIQGTCYRGKAKCCK; ends and bridges not checked; cysteine pairing not given here; UniProt P60022 33-68, looked up)",Gene that modulates bacterial susceptibility to the AMP,[1],yejA
human neutrophil peptide-1,Gene that modulates bacterial susceptibility to the AMP,[9],acrB
same,Gene that modulates bacterial susceptibility to the AMP,[10],"amiA, amiC"
lactoferricin B,Gene that modulates bacterial susceptibility to the AMP,[8],hemB
lactoferrin,Gene that modulates bacterial susceptibility to the AMP,[7],cps
magainin 2,Gene that modulates bacterial susceptibility to the AMP,[2],cpxA (CpxA/CpxR)
same,Gene that modulates bacterial susceptibility to the AMP,[10],"amiA, amiC"
same,Gene that modulates bacterial susceptibility to the AMP,[11],tatA
mellitin,Gene that modulates bacterial susceptibility to the AMP,[10],"amiA, amiC"
same,Gene that modulates bacterial susceptibility to the AMP,[11],tatA
nisin,Gene that modulates bacterial susceptibility to the AMP,[4],dltA (dlt operon)
same,Gene that modulates bacterial susceptibility to the AMP,[6],apsS
